Assay results as given in patent US9408393B2, “Bismuth-thiols as antiseptics for agricultural, industrial and other uses” (Microbion Corporation, priority 2010, dated 2016).
Like-named read-outs stand apart in the source and are kept apart here.

Assays:
Enterococcus faecalis = experiment: Single-point BisEDT-antibiotic combination FICI; format: cell-based; conditions: E Fc 3121
[1] = test system: Streptococcus pneumoniae (SP, PRSP); experiment: Single-point BisEDT-antibiotic combination FICI; conditions: PRSP 5348
[2] = test system: Staphylococcus aureus (SA, MRSA); experiment: Single-point BisEDT-antibiotic combination FICI; format: cell-based
[3] = test system: Gram-negative pathogenic bacteria; experiment: Checkerboard broth microdilution MIC and FICI; format: cell-based; conditions: for MIC (μg/mL) Alone / MIC: compound alone; for FICI, Fractional Inhibitory Concentration Index: in combination with Cefotaxime; for MIC: Klebsiella pneumoniae
Method: (§1) The effects of combinations of microparticulate Bis-EDT and four Bis-EDT analogs prepared as described above, and other agents against representative strains of several Gram-negative pathogenic bacteria were tested. A modification of a common laboratory method was used to determine synergism (FICI≦0.5), enhancement (0.5<FICI≦1.0), antagonism (FICI>4.0) and indifference (1.0<FICI≦4.0) used fractional inhibitory concentrations (FICs) and FIC indices (FICI) (Eliopoulos G and R Moellering. 1991. Antimicrobial combinations. In Antibiotics in Laboratory Medicine, Third Edition, edited by V Lorian. Williams and Wilkins, Baltimore, Md., pp. 432-492; Odds, 2003 J. Antimicrob. Chemother. 52(1):1). The checkerboard technique was used to determine FIC indices and was employed in this study.
(§2) Stock solutions of all test articles were prepared at 40× the final target concentration in the appropriate solvent. […] The final drug concentrations in the FIC assay plates were set to bracket the MIC value of each agent for each test organism, unless the strain was totally resistant to the test agent. […] The test organisms were originally received from clinical sources, or from the American Type Culture Collection. Upon receipt, the isolates were streaked onto Tryptic Soy Agar II (TSA). Colonies were harvested from these plates and a cell suspension was prepared in an appropriate broth growth medium containing cryoprotectant. Aliquots were then frozen at −80° C. The frozen seeds of the organisms to be tested in a given assay were thawed, streaked for isolation onto TSA plates, and incubated at 35° C. All organisms were tested in Mueller Hinton II Broth (Becton Dickinson, Lot No. 9044411). The broth was prepared at 1.05× normal weight/volume to offset the 5% volume of the drugs in the final test plates.
(§3) Minimal Inhibitory Concentration (MIC) values were previously determined using the broth microdilution method for aerobic bacteria (Clinical and Laboratory Standards Institute (CLSI). Methods for Dilution Antimicrobial Susceptibility Tests for Bacteria That Grow Aerobically; Approved Standard—Eighth Edition. CLSI document M07-A8 [ISBN 1-56238-689-1]. Clinical and Laboratory Standards Institute, 940 West Valley Road, Suite 1400, Wayne, Pa. 19087-1898 USA, 2009.).
(§4) FIC values were determined using a broth microdilution method previously described (Sweeney et al., 2003 Antimicrob. Agents Chemother. 47(6):1902-1906). To prepare the test plates, automated liquid handlers (Multidrop 384, Labsystems, Helsinki, Finland; Biomek 2000 and Multimek 96, Beckman Coulter, Fullerton Calif.) were used to conduct serial dilutions and liquid transfers.
(§5) The appropriate wells of standard 96-well microdilution plates (Falcon 3918) were filled with 150 μL of the appropriate solvent in columns 2-12 using the Multidrop 384. Three hundred microliters of each secondary test drug was added to each well in Column 1 of the plates. These plates were used to prepare the drug “mother plates” which provided the serial drug dilutions for the drug combination plates. The Biomek 2000 was used to transfer 150 μL of each secondary drug solution (40×) from the wells in Column 1 of the mother plate and to make eleven 2-fold serial dilutions. Mother plates of Bis-EDT (and analogs) were serial diluted top to bottom by hand, using a multichannel pipette. Two mother plates, one for each secondary drug and one for Bis-EDT (or analogs), were combined to form a “checkerboard” pattern by transfer of equal volumes (using a multi-channel pipette) to the drug combination plate. Row H and Column 12 each contained serial dilutions of one of the agents alone for determination of the MIC.
(§6) The “daughter plates” were loaded with 180 μL of test medium using the Multidrop 384. Then, the Multimek 96 was used to transfer 10 μL of drug solution from each well of the drug combination mother plate to each corresponding well of the daughter plate in a single step.

P. aeruginosa = experiment: Checkerboard broth microdilution MIC and FICI; format: cell-based, Pseudomonas aeruginosa; conditions: for MIC (μg/mL) Alone / MIC: compound alone; for MIC: Pseudomonas aeruginosa
Method: as §1, §2, §3, §4, §5, §6

S. aureus = experiment: Broth dilution MIC/MBC, BT-antibiotic combinations; format: cell-based, Staphylococcus aureus
Method: Materials & Methods. Susceptibility studies were performed by broth dilution in 96-well tissue culture plates (Nalge Nunc International, Denmark) in accordance with NCCLS protocols (National Committee for Clinical Laboratory Standards. (1997). Methods for Dilution Antimicrobial Susceptibility Tests for Bacteria that Grow Aerobically: Approved Standard M7-A2 and Informational Supplement M100-S10. NCCLS, Wayne, Pa., USA).
Briefly, overnight bacterial cultures were used to prepare 0.5 McFarland standard suspensions, which were further diluted 1:50 (˜2×10^6 cfu/mL) in cation-adjusted Mueller-Hinton broth medium (BBL, Cockeysville, Md., USA). BTs (prepared as described above) and antibiotics were added at incremental concentrations, keeping the final volume constant at 0.2 mL. Cultures were incubated for 24 h at 37° C. and turbidity was assessed by absorption at 630 nm using an ELISA plate reader (Biotek Instruments, Winooski, Vt., USA) according to the manufacturer's recommendations. […] Viable bacterial counts (cfu/mL) were determined by standard plating on nutrient agar.
The checkerboard method was used to assess the activity of antimicrobial combinations. The fractional inhibitory concentration index (FICI) and the fractional bactericidal concentration index (FBCI) were calculated, according to Eliopoulos et al. (Eliopoulos and Moellering, (1996) Antimicrobial combinations. In Antibiotics in Laboratory Medicine (Lorian, V., Ed.), pp. 330-96, Williams and Wilkins, Baltimore, Md., USA). Synergy was defined as an FICI or FBCI index of […], no interaction at >0.5-4 and antagonism at >4 (Odds, F C (2003) Synergy, antagonism, and what the chequerboard puts between them. Journal of Antimicrobial Chemotherapy 52:1). Synergy was also defined conventionally as ≧4-fold decrease in antibiotic concentration.

[4] = P. aeruginosa 103, in combination with Cefepime
[5] = P. aeruginosa 103, in combination with Cefotaxime
[6] = P. aeruginosa 1381, in combination with Cefepime
[7] = P. aeruginosa 1384, in combination with Cefepime
[8] = P. aeruginosa 1474, in combination with Cefepime
[9] = P. aeruginosa 1479, in combination with Cefepime
[10] = P. aeruginosa 2566, in combination with Cefepime
[11] = P. aeruginosa 2568, in combination with Cefepime
[12] = MRSA S2446-3, BE = 0.2 μg/ml BisEDT
[13] = S. aureus ATCC 25923, BE = 0.2 μg/ml BisEDT

SMILES: CO/N=C(\C(=O)N[C@@H]1C(=O)N2C(C(=O)O)=C(COC(N)=O)CS[C@H]12)c1ccco1 [Cefuroxime]
- FICI, single-point BisEDT-antibiotic combination (Enterococcus faecalis): 1.11
- FICI, single-point BisEDT-antibiotic combination [1]: 1.03
- FICI, single-point BisEDT-antibiotic combination ([2]; MRSA 773): 4.23
- FICI, single-point BisEDT-antibiotic combination ([2]; SA 100): 1.11

SMILES: C1C[S][Bi]([S]CC[S][Bi]2[S]CC[S]2)[S]1 [MB-1B-3, bismuth-1,2-ethane dithiol]
- MIC (μg/mL) Alone ([3]; K. pneumoniae 1346): 2 µg/mL
- FICI, Fractional Inhibitory Concentration Index ([3]; K. pneumoniae 1346): 1.23
- MIC (μg/mL) Alone ([3]; K. pneumoniae 1355): 1 µg/mL
- FICI, Fractional Inhibitory Concentration Index ([3]; K. pneumoniae 1355): 2.29
- MIC (μg/mL) Alone ([3]; K. pneumoniae 2238): 1 µg/mL
- FICI, Fractional Inhibitory Concentration Index ([3]; K. pneumoniae 2238): 1.29
- MIC (μg/mL) Alone ([3]; K. pneumoniae 2541): 2 µg/mL
- FICI, Fractional Inhibitory Concentration Index ([3]; K. pneumoniae 2541): 1.23
- MIC (μg/mL) Alone ([3]; K. pneumoniae 2546): 1 µg/mL
- FICI, Fractional Inhibitory Concentration Index ([3]; K. pneumoniae 2546): 1.12
- MIC (μg/mL) Alone ([3]; K. pneumoniae 2549): 1 µg/mL
- FICI, Fractional Inhibitory Concentration Index ([3]; K. pneumoniae 2549): 0.79
- MIC (μg/mL) Alone (P. aeruginosa; P. aeruginosa 103): 1 µg/mL
- FICI, Fractional Inhibitory Concentration Index (P. aeruginosa; [4]): 0.71
- FICI, Fractional Inhibitory Concentration Index (P. aeruginosa; [5]): 0.96
- MIC (μg/mL) Alone (P. aeruginosa; P. aeruginosa 1381): 1 µg/mL
- FICI, Fractional Inhibitory Concentration Index (P. aeruginosa; [6]): 1.29
- MIC (μg/mL) Alone (P. aeruginosa; P. aeruginosa 1384): 1 µg/mL
- FICI, Fractional Inhibitory Concentration Index (P. aeruginosa; [7]): 0.79
- MIC (μg/mL) Alone (P. aeruginosa; P. aeruginosa 1474): 1 µg/mL
- FICI, Fractional Inhibitory Concentration Index (P. aeruginosa; [8]): 0.79
- MIC (μg/mL) Alone (P. aeruginosa; P. aeruginosa 1479): 1 µg/mL
- FICI, Fractional Inhibitory Concentration Index (P. aeruginosa; [9]): 1.12
- MIC (μg/mL) Alone (P. aeruginosa; P. aeruginosa 2566): 0.5 µg/mL
- FICI, Fractional Inhibitory Concentration Index (P. aeruginosa; [10]): 1.37
- MIC (μg/mL) Alone (P. aeruginosa; P. aeruginosa 2568): 1 µg/mL
- FICI, Fractional Inhibitory Concentration Index (P. aeruginosa; [11]): 0.79

SMILES: OCC(S)CS.[Bi] (stereo not drawn) [MB-2B, bismuth-2,3-dimercaptopropanol]
- FICI, Fractional Inhibitory Concentration Index ([3]; K. pneumoniae 1346): 1.19
- FICI, Fractional Inhibitory Concentration Index ([3]; K. pneumoniae 1355): 1.19
- FICI, Fractional Inhibitory Concentration Index ([3]; K. pneumoniae 2238): 1.64
- FICI, Fractional Inhibitory Concentration Index ([3]; K. pneumoniae 2541): 0.64
- FICI, Fractional Inhibitory Concentration Index ([3]; K. pneumoniae 2546): 1.16
- FICI, Fractional Inhibitory Concentration Index ([3]; K. pneumoniae 2549): 0.83
- MIC ([3]; read-out: MIC (μg/mL) Alone, K. pneumoniae 1346): 4 µg/mL
- MIC ([3]; read-out: MIC (μg/mL) Alone, K. pneumoniae 1355): 4 µg/mL
- MIC ([3]; read-out: MIC (μg/mL) Alone, K. pneumoniae 2238): 4 µg/mL
- MIC ([3]; read-out: MIC (μg/mL) Alone, K. pneumoniae 2541): 8 µg/mL
- MIC ([3]; read-out: MIC (μg/mL) Alone, K. pneumoniae 2546): 8 µg/mL
- MIC ([3]; read-out: MIC (μg/mL) Alone, K. pneumoniae 2549): 8 µg/mL
- FICI, Fractional Inhibitory Concentration Index (P. aeruginosa; P. aeruginosa 103, in combination with Aztreonam): 1.08
- FICI, Fractional Inhibitory Concentration Index (P. aeruginosa; [4]): 0.61
- FICI, Fractional Inhibitory Concentration Index (P. aeruginosa; [5]): 1.11
- MIC (μg/mL) Alone (P. aeruginosa; P. aeruginosa 1381): 4 µg/mL
- FICI, Fractional Inhibitory Concentration Index (P. aeruginosa; P. aeruginosa 1381, in combination with Aztreonam): 0.89
- FICI, Fractional Inhibitory Concentration Index (P. aeruginosa; [6]): 1.09
- MIC (μg/mL) Alone (P. aeruginosa; P. aeruginosa 1384): 4 µg/mL
- FICI, Fractional Inhibitory Concentration Index (P. aeruginosa; P. aeruginosa 1384, in combination with Aztreonam): 0.91
- FICI, Fractional Inhibitory Concentration Index (P. aeruginosa; [7]): 0.94
- FICI, Fractional Inhibitory Concentration Index (P. aeruginosa; P. aeruginosa 1474, in combination with Aztreonam): 0.54
- FICI, Fractional Inhibitory Concentration Index (P. aeruginosa; [8]): 0.98
- FICI, Fractional Inhibitory Concentration Index (P. aeruginosa; P. aeruginosa 1479, in combination with Aztreonam): 0.87
- FICI, Fractional Inhibitory Concentration Index (P. aeruginosa; [9]): 1.11
- FICI, Fractional Inhibitory Concentration Index (P. aeruginosa; P. aeruginosa 2566, in combination with Aztreonam): 0.91
- FICI, Fractional Inhibitory Concentration Index (P. aeruginosa; [10]): 1.23
- FICI, Fractional Inhibitory Concentration Index (P. aeruginosa; P. aeruginosa 2568, in combination with Aztreonam): 0.87
- FICI, Fractional Inhibitory Concentration Index (P. aeruginosa; [11]): 1.11
- MIC (P. aeruginosa; read-out: MIC (μg/mL) Alone, P. aeruginosa 1381): 8 µg/mL
- MIC (P. aeruginosa; read-out: MIC (μg/mL) Alone, P. aeruginosa 1384): 8 µg/mL

SMILES: NC[C@@H]1O[C@H](O[C@H]2[C@@H](O)[C@H](O[C@@H]3[C@@H](O)[C@H](N)C[C@H](N)[C@H]3O[C@H]3O[C@H](CN)[C@@H](O)[C@H](O)[C@H]3N)O[C@@H]2CO)[C@H](N)[C@@H](O)[C@@H]1O [NEO, Neomycin]
- Δ (S. aureus; [12]): 1.6
- MIC (S. aureus; MRSA S2446-3, antibiotic alone): 13.400 µg/mL
- MIC + BE (S. aureus; MRSA S2446-3, with 0.2 μg/ml BisEDT): 8.500 µg/mL
- Δ (S. aureus; [13]): 2.5
- MIC (S. aureus; S. aureus ATCC 25923, antibiotic alone): 0.500 µg/mL
- MIC + BE (S. aureus; S. aureus ATCC 25923, with 0.2 μg/ml BisEDT): 0.200 µg/mL

SMILES: NC[C@@H]1O[C@H](O[C@H]2[C@@H](O)[C@H](O[C@@H]3[C@@H](O)[C@H](N)C[C@H](N)[C@H]3O[C@H]3O[C@H](CO)[C@@H](O)[C@H](O)[C@H]3N)O[C@@H]2CO)[C@H](N)[C@@H](O)[C@@H]1O [PARO, Paromomycin]
- Δ (S. aureus; [12]): 1.8
- Synergy (S. aureus; [13]): + (Synergy was also defined conventionally as ≧4-fold decrease in antibiotic concentration)
- Δ (S. aureus; [13]): 5.7
- MIC (S. aureus; Staphylococcus aureus, ATCC25923, S. aureus ATCC 25923, antibiotic alone, read-out: MIC): 1.08 µg/mL
- MIC (S. aureus; Staphylococcus aureus, ATCC25923, S. aureus ATCC 25923, with 0.2 μg/ml BisEDT, read-out: MIC + BE): 0.188 µg/mL
- MIC (S. aureus; Staphylococcus aureus, MRSA, MRSA S2446-3, antibiotic alone, read-out: MIC): 335 µg/mL
- MIC (S. aureus; Staphylococcus aureus, MRSA, MRSA S2446-3, with 0.2 μg/ml BisEDT, read-out: MIC + BE): 183 µg/mL
